Laboratory results as given in the supplement of paper PMC10307832.

Columns and labels:
Experiment in all cases: relative viability (nuclei count vs DMSO), 5 days (fraction); higher = more cells survive
[1] = system: A-427
Outline: (§1)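 Relative viability equals treated-well nuclei counts divided by vehicle-well nuclei counts. Counts came from 4× images of lung cancer cell lines grown in 1536-well plates for 5 days after pin-tool dosing on the day after seeding. Dosing used one drug alone or a fixed anchor-drug dose plus five library-drug doses (not always all listed) in √10 steps, and values are medians of duplicate plates.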

[2] = system: ABC-1
Outline: as §1

[3] = system: EMC-BAC-2
Outline: as §1

[4] = system: HARA
Outline: as §1

[5] = system: HOP-62
Outline: as §1

[6] = system: LK-2
Outline: as §1

[7] = system: LXF-289
Outline: as §1

[8] = system: NCI-H1792
Outline: as §1

[9] = system: NCI-H1944
Outline: as §1

[10] = system: NCI-H1993
Outline: as §1

[11] = system: NCI-H2009
Outline: as §1

[12] = system: NCI-H2170
Outline: as §1

[13] = system: NCI-H2228
Outline: as §1

[14] = system: NCI-H3122
Outline: as §1

[15] = system: NCI-H322M
Outline: as §1

[16] = system: NCI-H522
Outline: as §1

[17] = system: NCI-H596
Outline: as §1

[18] = system: NCI-H727
Outline: as §1

[19] = system: PC-3 [JPC-3]
Outline: as §1

[20] = system: SK-MES-1
Outline: as §1

[21] = system: SW 1573
Outline: as §1

[22] = system: SW 900
Outline: as §1

## Cc1sc2c(c1C)C(c1ccc(Cl)cc1)=N[C@@H](CC(=O)OC(C)(C)C)c1nnc(C)n1-2 [JQ1] + Cc1nc(Nc2ncc(C(=O)Nc3c(C)cccc3Cl)s2)cc(N2CCN(CCO)CC2)n1 [Dasatinib] (partner 0.075 µM)
[1]; first compound 0.04 µM
  relative viability: 0.759
[1]; first compound 0.1265 µM
  relative viability: 0.592
[1]; first compound 0.4 µM
  relative viability: 0.696
[1]; first compound 1.265 µM
  relative viability: 0.696
[1]; first compound 4 µM
  relative viability: 0.529
[2]; first compound 0.04 µM
  relative viability: 0.583
[2]; first compound 0.1265 µM
  relative viability: 0.413
[2]; first compound 0.4 µM
  relative viability: 0.417
[2]; first compound 1.265 µM
  relative viability: 0.429
[2]; first compound 4 µM
  relative viability: 0.333
[3]; first compound 0.04 µM
  relative viability: 0.33
[3]; first compound 0.1265 µM
  relative viability: 0.235
[3]; first compound 0.4 µM
  relative viability: 0.254
[3]; first compound 1.265 µM
  relative viability: 0.205
[3]; first compound 4 µM
  relative viability: 0.371
[4]; first compound 0.04 µM
  relative viability: 0.207
[4]; first compound 0.1265 µM
  relative viability: 0.242
[4]; first compound 0.4 µM
  relative viability: 0.309
[4]; first compound 1.265 µM
  relative viability: 0.236
[4]; first compound 4 µM
  relative viability: 0.247
[5]; first compound 0.04 µM
  relative viability: 0.559
[5]; first compound 0.1265 µM
  relative viability: 0.31
[5]; first compound 0.4 µM
  relative viability: 0.355
[5]; first compound 1.265 µM
  relative viability: 0.158
[5]; first compound 4 µM
  relative viability: 0.116
[6]; first compound 0.04 µM
  relative viability: 0.254
[6]; first compound 0.1265 µM
  relative viability: 0.156
[6]; first compound 0.4 µM
  relative viability: 0.162
[6]; first compound 1.265 µM
  relative viability: 0.108
[6]; first compound 4 µM
  relative viability: 0.112
[7]; first compound 0.04 µM
  relative viability: 0.283
[7]; first compound 0.1265 µM
  relative viability: 0.117
[7]; first compound 0.4 µM
  relative viability: 0.212
[7]; first compound 1.265 µM
  relative viability: 0.156
[7]; first compound 4 µM
  relative viability: 0.152
[8]; first compound 0.04 µM
  relative viability: 0.837
[8]; first compound 0.4 µM
  relative viability: 0.839
[8]; first compound 1.265 µM
  relative viability: 0.579
[8]; first compound 4 µM
  relative viability: 0.5
[9]; first compound 0.04 µM
  relative viability: 0.202
[9]; first compound 0.1265 µM
  relative viability: 0.14
[9]; first compound 0.4 µM
  relative viability: 0.204
[9]; first compound 1.265 µM
  relative viability: 0.179
[9]; first compound 4 µM
  relative viability: 0.214
[10]; first compound 0.04 µM
  relative viability: 0.574
[10]; first compound 0.1265 µM
  relative viability: 0.798
[10]; first compound 0.4 µM
  relative viability: 0.597
[10]; first compound 1.265 µM
  relative viability: 0.532
[10]; first compound 4 µM
  relative viability: 1.44
[11]; first compound 0.04 µM
  relative viability: 0.258
[11]; first compound 0.1265 µM
  relative viability: 0.156
[11]; first compound 0.4 µM
  relative viability: 0.196
[11]; first compound 1.265 µM
  relative viability: 0.154
[11]; first compound 4 µM
  relative viability: 0.185
[12]; first compound 0.04 µM
  relative viability: 0.57
[12]; first compound 0.1265 µM
  relative viability: 0.47
[12]; first compound 0.4 µM
  relative viability: 0.392
[12]; first compound 1.265 µM
  relative viability: 0.334
[12]; first compound 4 µM
  relative viability: 0.305
[13]; first compound 0.04 µM
  relative viability: 0.416
[13]; first compound 0.1265 µM
  relative viability: 0.476
[13]; first compound 0.4 µM
  relative viability: 0.515
[13]; first compound 1.265 µM
  relative viability: 0.189
[13]; first compound 4 µM
  relative viability: 0.245
[14]; first compound 0.04 µM
  relative viability: 0.777
[14]; first compound 0.1265 µM
  relative viability: 0.551
[14]; first compound 0.4 µM
  relative viability: 0.582
[14]; first compound 1.265 µM
  relative viability: 0.463
[14]; first compound 4 µM
  relative viability: 0.209
[15]; first compound 0.04 µM
  relative viability: 0.234
[15]; first compound 0.1265 µM
  relative viability: 0.245
[15]; first compound 0.4 µM
  relative viability: 0.24
[15]; first compound 1.265 µM
  relative viability: 0.225
[15]; first compound 4 µM
  relative viability: 0.239
[16]; first compound 0.04 µM
  relative viability: 0.951
[16]; first compound 0.1265 µM
  relative viability: 0.641
[16]; first compound 0.4 µM
  relative viability: 0.584
[16]; first compound 1.265 µM
  relative viability: 0.575
[16]; first compound 4 µM
  relative viability: 0.537
[17]; first compound 0.04 µM
  relative viability: 0.671
[17]; first compound 0.1265 µM
  relative viability: 0.456
[17]; first compound 0.4 µM
  relative viability: 0.559
[17]; first compound 1.265 µM
  relative viability: 0.281
[17]; first compound 4 µM
  relative viability: 0.29
[18]; first compound 0.04 µM
  relative viability: 0.354
[18]; first compound 0.1265 µM
  relative viability: 0.555
[18]; first compound 0.4 µM
  relative viability: 0.398
[18]; first compound 1.265 µM
  relative viability: 0.295
[18]; first compound 4 µM
  relative viability: 0.426
[19]; first compound 0.04 µM
  relative viability: 0.998
[19]; first compound 0.1265 µM
  relative viability: 1.02
[19]; first compound 0.4 µM
  relative viability: 1.16
[19]; first compound 1.265 µM
  relative viability: 0.96
[19]; first compound 4 µM
  relative viability: 0.578
[20]; first compound 0.04 µM
  relative viability: 0.338
[20]; first compound 0.1265 µM
  relative viability: 0.273
[20]; first compound 0.4 µM
  relative viability: 0.311
[20]; first compound 1.265 µM
  relative viability: 0.168
[20]; first compound 4 µM
  relative viability: 0.171
[21]; first compound 0.04 µM
  relative viability: 0.486
[21]; first compound 0.1265 µM
  relative viability: 0.447
[21]; first compound 0.4 µM
  relative viability: 0.31
[21]; first compound 1.265 µM
  relative viability: 0.218
[21]; first compound 4 µM
  relative viability: 0.23
[22]; first compound 0.04 µM
  relative viability: 0.521
[22]; first compound 0.1265 µM
  relative viability: 0.456
[22]; first compound 0.4 µM
  relative viability: 0.298
[22]; first compound 1.265 µM
  relative viability: 0.193
[22]; first compound 4 µM
  relative viability: 0.135
